From PMC8760490, “Discovery of novel furanylbenzamide inhibitors that target oncogenic tyrosine phosphatase SHP2 in leukemia cells” (The Journal of Biological Chemistry, 2021)

Target: T1, STEP (280–566) catalytic domain (Homo sapiens, UniProt P54829)
T1 construct: the codon-optimized STEP (280–566) catalytic domains; His tag (pET-15b) (N); made in house; host or cells: E. coli BL21(DE3)
T1 sequence (P54829 280-565 limits assumed): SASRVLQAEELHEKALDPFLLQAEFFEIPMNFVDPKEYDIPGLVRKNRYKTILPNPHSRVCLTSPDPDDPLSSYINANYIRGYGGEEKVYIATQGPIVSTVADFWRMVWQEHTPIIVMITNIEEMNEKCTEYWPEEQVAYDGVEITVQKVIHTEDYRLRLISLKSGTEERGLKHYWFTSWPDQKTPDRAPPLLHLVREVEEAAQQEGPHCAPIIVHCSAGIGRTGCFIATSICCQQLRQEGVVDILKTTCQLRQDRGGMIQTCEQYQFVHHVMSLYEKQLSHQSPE
Assay: DiFMUP phosphatase inhibition assay, STEP
Assay type: biochemical
Conditions: for IC50: catalytic domain, DiFMUP at Km (4 μM); for selectivity for SHP2 over STEP: from IC50 values against catalytic domains
Method: Selectivity is one of the biggest challenges in PTP inhibitor development. […] Similar to SHP2, we adapted a 384-well plate format DiFMUP assay for recombinant PTP1B and STEP and performed Michaelis–Menten experiments to determine DiFMUP Km values for each phosphatase. IC50 values of our inhibitors for PTP1B and STEP were determined in 10-point dose–response assays with DiFMUP used at the concentration corresponding to the respective Km value. […] Other inhibitors with good relative selectivity for SHP2 included SBI-4668 (13-fold selective over PTP1B; 73-fold selective over STEP) and SBI-3404 (fivefold selective over PTP1B; >71-fold selective over STEP).
Recombinant human full-length SHP2 (1–594) WT and E76K mutants, as well as the SHP2cat (248–527), were expressed and purified as described before ([36], [41]). Recombinant human PTP1B (1–300) and the codon-optimized STEP (280–566) catalytic domains were cloned into PET-15b and expressed as N-His-tagged fusion proteins. For expression, transformed BL21(DE3) cells were grown and induced similar as described for SHP2. Collected cells were resuspended in lysis buffer (25 mM Tris, pH 7.5, 300 mM NaCl, 50 mM imidazole, and 10% glycerol) with 100 mg/l RNaseA and were lysed with two passages using a microfluidizer. The lysate was clarified by centrifugation at 15,000g for 50 min and applied to nickel–nitrilotriacetic acid resin. The column resin was washed, and the PTP1B or STEP protein was eluted in lysis buffer at 300 mM imidazole. The PTP1B or STEP protein was further purified by S75 size-exclusion chromatography in 50 mM Tris, pH 7.5, 50 mM NaCl. The eluted peak fractions were supplemented with tris(2-carboxyethyl)phosphine to 10 mM, concentrated by ultrafiltration, and stored at −80 °C. The purified yield of PTP1B was 33 mg/l cell culture; the yield of STEP was 16 mg/l cell culture.
SHP2 inhibitors were tested at RT in a 384-well plate format standard phosphatase fluorescence intensity assay using DiFMUP (Invitrogen/Thermo Fisher Scientific) as a substrate and a total reaction volume of 25 μl. SHP2 inhibitors or vehicle (DMSO) were spotted in triplicate into a black Greiner FLUOTRAC 200 384-well microplate (catalog no.: 781076; Greiner) for a 10-point dose–response assay using an Echo 555 Liquid Handler (Labcyte, Inc). PTP working solutions were prepared at a 0.625 nM concentration (for a final concentration of 0.5 nM) in buffer containing 50 mM Bis–Tris, pH 6.0, 50 mM NaCl, 5 mM DTT, and 0.01% Tween-20. Prior to the assay, a dually phosphorylated IRS-1 peptide (625 nM [500 nM final] ([30])) was added to full-length WT SHP2 working solutions and incubated for 20 min. DiFMUP working solutions at 5× final concentration were prepared in 50 mM Bis–Tris, pH 6.0, 50 mM NaCl, and 0.01% Tween-20. About 20 μl of PTP working solution was dispensed into the microplate and incubated with inhibitor for 20 min at RT. […] The reaction was initiated by addition of 5 μl DiFMUP working solutions. Fluorescence intensity was measured in kinetic mode (every minute for 7 or 10 min) using a Tecan Spark Multimode Microplate Reader (Tecan) with an excitation wavelength of 360 nm and an emission wavelength of 460 nm. The initial rates were determined from the linear progression curves of the PTP reaction. The nonenzymatic hydrolysis of the substrate was corrected by using a control without addition of enzyme. IC50 values were calculated from the corrected initial rates by nonlinear regression using the program GraphPad Prism, version 8 (GraphPad Software, Inc) software. Dose–response inhibition assays of SHP2cat using the substrate OMFP were performed similarly as described previously for DiFMUP. OMFP was used at a concentration corresponding to its Km value for SHP2cat (50 μM final). Fluorescence intensity was measured in kinetic mode (every minute for 10 min) using a Tecan Spark Multimode Microplate Reader with an excitation wavelength of 485 nm and an emission wavelength of 535 nm. […]

Compound | IC50 | selectivity for SHP2 over STEP
Nc1ccc(NC(=O)c2cc(-c3ccc(/C=C4\Sc5ccccc5C4=O)o3)ccc2O)cc1 [SBI-2130, (Z)-N-(4-Aminophenyl)-2-hydroxy-5-(5-((3-oxobenzo[b]thiophen-2(3H)-ylidene)methyl)furan-2-yl)benzamide] | 44 µM | 200 fold
O=C1CCCC1=Cc1ccc(-c2ccc(O)c(C(=O)Nc3ccccc3)c2)o1 [SBI-3192, 2-Hydroxy-5-(5-((2-oxocyclopentylidene)methyl)furan-2-yl)-N-phenylbenzamide] | 27 µM | 
O=C(Nc1ccccc1)c1cc(-c2ccc(/C=C3\Sc4ccccc4C3=O)o2)ccc1O [SBI-4668, (Z)-2-Hydroxy-5-(5-((3-oxobenzo[b]thiophen-2(3H)-ylidene)methyl)furan-2-yl)-N-phenylbenzamide] | 53 µM | 73 fold

More lines, now with the values ahead:

IC50 | selectivity for SHP2 over STEP | Compound
 | > 71 fold | N#Cc1cc(-c2ccc(/C=C3\Sc4ccccc4C3=O)o2)ccc1O [SBI-3404, (Z)-2-Hydroxy-5-(5-((3-oxobenzo[b]thiophen-2(3H)-ylidene)methyl)furan-2-yl)benzonitrile]
7.7 µM |  | O=C1/C(=C/c2ccc(-c3ccc(O)c(-c4nn[nH]n4)c3)o2)Sc2ccccc21 [SBI-3405, (Z)-2-((5-(4-Hydroxy-3-(2H-tetrazol-5-yl)phenyl)furan-2-yl)methylene)benzo[b]thiophen-3(2H)-one]
